The values below come from patent US20020177172A1, “RESTORATION OF PLATELET AGGREGATION BY ANTIBODY ADMINISTRATION AFTER GPIIB/IIIA ANTAGONIST TREATMENT” (priority 1996, published 2002).

Broadly, the inhibition is the drop in the measured response relative to a control, in per cent. Broadly, the IC50 is the concentration needed to halve the response being measured.

In data set [1] the test system is human platelet rich plasma. In words: Aggregation of human platelet rich plasma. The format is cell-based. Conditions: read-out: inhibition of aggregation by the compound itself; for inhibition at 0.05 µM: 5×10^−8 M. Here is the method: Human platelet rich plasma (“PRP”) was prepared by centrifugation of citrated whole blood at 970×g for 3.5 minutes at room temperature. PRP was carefully removed from red cells and placed in 50 mL conical tubes. Platelet aggregation was measured as an increase in light transmission in an aggregometer (Bio/Data model PAP-4, Horsham, Pa.) using ADP (20 μM) or collagen (4 μg/mL) as the agonist.
Antibodies produced according to Example 4 were assayed in aggregation for their ability to neutralize (at 60 nM) the GPIIb/IIIa antagonists compound B (5×10^−8 M), compound D (1×10^−7 M), and Merck compound MK383 (5×10^−8 M), as a means of screening which ones recognized the antagonists in a useful manner. The levels of antiplatelet compounds used provided at least 50 percent inhibition of aggregation by themselves. Results are illustrated in FIG. 3.
Collagen-induced platelet aggregation was measured in the presence of 50 nM compound B or 100 nM compound D over 3 minutes in the presence or absence of Mab 9F7 inclusion at 60 nM.

Data set [2] has as its system platelet aggregation. In words: In vivo platelet aggregation, dogs (ex vivo aggregation response). To be noted: dog, capsule of 10 mg BID for 4 days (15 mg on day 3). Here is the method:
Three beagle dogs were therefore infused with compound B while monitoring blood pressure, heart rate, PT (prothrombin time), and aPTT (activated partial thromboplastin time). […] In a second study, a dog was treated with a capsule of 10 mg of compound A, BID for 4 days (15 mg on day 3) prior to antibody testing. […] Four hours after the last oral dose of compound A, a dose of pentobarbitol and the monoclional antibody ([…]-9F7) was infused by a i.v. bolus injection. Each bolus contained a 5-fold molar excess over drug plasma levels (about 50 mg of Mab 9F7). A control dog was given identical amounts of antibody without compound A oral dosing.

Data set [3] concerns platelet aggregation. To be noted: 20 mg/kg infused into femoral vein of anesthetized dogs; cited from earlier work.
Data set [4] has as its system platelet aggregation. In words: IC50 values of antiplatelet compounds (FIG. 1 legend). The format is cell-based.
Data set [5] has as its system heparinized human whole blood. In words: Activated clotting time (ACT) in heparinized human whole blood, Hemochron-8000. To be noted: 1.4 Units/mL heparin; FIG. 1. The class given is cell-based. An excerpt:
This process can be used to calculate a standardized concentration curve for various known concentrations of anti-platelet compounds. The process can also be used to measure activated clotting times for use in calculating the ACT number for the processes of the invention.
A. Blood was drawn from a human volunteer into a syringe containing heparin. The heparin to whole blood ratio was 1:10 such that the final concentration of heparin in the syringe was 1.4 Units/mL.
B. The Hemochron™-8000 was set up to run ACT using the P-215 tubes from the same manufacturer (International Technidyne).
A. A 1 mL sample of the above heparinized blood was admixed and maintained (incubated) with 2.5-10 μl of antagonist compound or saline for 5 minutes at room temperature.
B. The Hemochron™ was started as 400 μl of the test sample was pipetted into the P-215 tube. The tube contents were gently mixed, placed into the Hemochron™ and turned one revolution until the light on the instrument came on.
C. Step B was repeated for the second channel of the instrument within 30 seconds to give an average activated clotting time. […]
The activated clotting time was first measured (in seconds) for control whole blood from each donor containing only 1.4 Units/mL of heparin. The clotting times were then measured as in Example 1 by varying concentrations of antiplatelet compounds B and D in addition to heparin for each donor. […]

Data set [6] can be described thus: Removal from circulation / elimination half-life. Conditions: for route of removal from circulation: in vivo; for change of elimination half-life with decreased creatinine clearance: renal impairment. The format is in vivo.
The nature of data set [7]: Total and free plasma levels of compound B in dog. The format is in vivo. Conditions: three bolus infusions of Mab 9F7, FIG. 11. The protocol:
In a second study, a dog was treated with a capsule of 10 mg of compound A, BID for 4 days (15 mg on day 3) prior to antibody testing. […] Four hours after the last oral dose of compound A, a dose of pentobarbitol and the monoclional antibody (P187-9F7) was infused by a i.v. bolus injection. Each bolus contained a 5-fold molar excess over drug plasma levels (about 50 mg of Mab 9F7). A control dog was given identical amounts of antibody without compound A oral dosing. Blood samples were collected for aggregation assays at 5, 15, 30 and 60 minutes after each bolus administration of antibody, plasma levels of Mab 9F7, and total and free plasma levels of compound B.
This method involves the extraction of compound B and an internal standard (compound F, shown hereinafter) from acidified dog plasma with a C18 solid phase extraction column. Analysis is by reverse phase high performance liquid chromatography with fluorescence detection. Calibration standards were prepared in human heparinized plasma. Quality control pools were prepared in dog plasma and quantified using the human calibration curve. A linear weighted (1/concentration squared) least squares regression analysis was used to quantify samples. This method was validated with a minimum quantifiable level of 1.00 ng/mL. […]
Removed the samples to be analyzed from the freezer and thawed. […] The filtrate was then analyzed by the method given below. […]

Data set [8] can be described thus: Half-life of compound B in guinea pig. The class given is in vivo.

≈ marks a conversion by molar mass, not a printed value. Where a name gives a salt, the structure may show the parent alone. Square brackets hold non-standard residues; d marks the D form. Peptide text beside a SMILES is read from it. NMeR = CN[C@@H](CCCNC(=N)N)C(=O)O; 3Amb = NCc1cccc(C(=O)O)c1; dAbu = CC[C@@H](N)C(=O)O Bounds are passed on as bounds.

Consider `CCCCS(=O)(=O)N[C@@H](Cc1ccc(OCCCCC2CCNCC2)cc1)C(=O)O` [MK383, N-(butylsulfonyl)-0-(4-(4-piperidinyl)butyl)-L-tyrosine, monohydrochloride, reference compound], for which, in data set [1], the inhibition at 0.05 µM was no less than 50%.

On to `C#C[C@H](CC(=O)OCC)NC(=O)CCC(=O)Nc1ccc(C(=N)N)cc1.Cl` [Compound A, ethyl 3S-[[4-[[4-(aminoiminomethyl)phenyl]-amino]-1,4-dioxobutyl]amino]-4-pentynoate monohydrochloride], for which the “inhibition of platelet function” value in the data set on platelet aggregation [2] was found to be 54%.

As for `CC[C@H]1NC(=O)c2cccc(c2)CNC(=O)[C@H](CC(=O)O)NC(=O)CNC(=O)[C@H](CCCNC(=N)N)N(C)C1=O` [DMP728, cyclic [D-2-aminobutyryl-N2-methyl-L-arginyl-glycyl-L-aspartyl-3-aminomethyl-benzoic acid] methanesulfonic acid salt] (cyclo([NMeR]GD[3Amb][dAbu])), in the data set on platelet aggregation [3], the “duration of inhibition of platelet aggregation” value is “up to 210 minutes” and the “inhibition of platelet aggregation, measured ex vivo” value is listed as “nearly complete inhibition”.

`N=C(N)c1ccc(N2CC[C@H](NC(=O)NCCC(=O)O)C2=O)cc1` [Compound D, 3-[[[[1-[4-(aminoiminomethyl)phenyl]-2-oxo-pyrrolidin-3S-yl]amino]carbonyl]amino]propanoic acid] registered an IC50 with platelet aggregation [4] of 0.043 µg/mL (≈ 0.129 µM). Moreover, the “effect of compound concentration on activated clotting time” value in data set [5] is “directly affect the activated clotting time”. The inhibition at 0.1 µM in data set [1] (1×10^−7 M) was no less than 50%. For the same compound, in data set [6], the “route of removal from circulation” value is “almost exclusively by the kidney” and the “change of elimination half-life with decreased creatinine clearance” value is on record as “appreciable increases”.

Take `C#C[C@H](CC(=O)O)NC(=O)CCC(=O)Nc1ccc(C(=N)N)cc1` [Compound B, 3S-[[4-[[4-(aminoiminomethyl)phenyl]amino]-1,4-dioxobutyl]amino]-4-pentynoic acid]: in the data set on platelet aggregation [4], half-maximal inhibition (IC50) was put at 0.027 µg/mL (≈ 0.0817 µM). In addition, the “effect of compound concentration on activated clotting time” value in data set [5] is “directly affect the activated clotting time”. Further, the inhibition at 0.05 µM in data set [1] was no less than 50%. Also, the “levels of total compound B (free plus antibody bound)” value in data set [7] is recorded as “increased throughout the three infusions”. In addition, in data set [6], the “route of removal from circulation” value is on record as “almost exclusively by the kidney” and the “change of elimination half-life with decreased creatinine clearance” value is “appreciable increases”. Further, the half-life result in data set [8] was “short”.
